Each structure is given as a SMILES string. “Also recorded” adds a separate entry of the source. Read-outs that look alike come from different tables or passages of the source.

The test system of one data set is GBP1. Kind of data set: Confocal microscopy of GBP1 and β-tubulin in SCC-90 cells. The format is cell-based. The following applies: SCC-90, SU093 50 nM, 6 h. From the text:
(§1) The potential for GBP1 inhibition and radiosensitzation in head and neck cancer cells was also investigated.

The next data set relates to OVCAR8-PRes cells. Put plainly: Growth inhibition of paclitaxel-resistant OVCAR8-PRes cells. The format is cell-based. From the text: The cytotoxic effect of SU093 and paclitaxel combination treatment was also studied (FIG. 5, panel E).
For the next data set, the system named is HCT116. Put plainly: MTT cytotoxicity assay, HCT116. The format is cell-based. The note with it: Homo sapiens, HCT-116, Colorectal. From the text:
(§2) It was observed that SU093 was highly cytotoxic for all cell lines tested with IC50 values in the nanomolar range.
On the technique in general: Formazan colour is commonly taken as a measure of viable cells.

The subject of a further data set is A549. Put plainly: MTT cytotoxicity assay, A549. The class given is cell-based. The note with it: Homo sapiens, Lung.
Excerpt: as §2

Another data set has as its system SCC-90 cells. Kind of data set: Clonogenic radiosensitization assay in SCC-90 cells. The note with it: SCC-90, SU093 50 nM then radiation. The format is cell-based.
Excerpt: as §1

Another data set deals with ID-8 tumor xenograft. Kind of data set: Ovarian ID-8 tumor xenograft in C57BL6 mice. The class given is in vivo. From the text: An immunocompetent syngeneic mouse model was used to evaluate in vivo antitumor effect of SU093 and SU056 (also referred to herein as Compound (I)) for ovarian cancer. C57BL6 female mice (n=5/group) were subcutaneously injected in the right flank with 5×10^6 ID-8 cells mixed with matrigel. From the day following xenograft implantation, mice were monitored regularly for tumor growth and once the tumors reached approximately 100 mm^3, the mice were randomly divided into three groups and respective treatments were given.
Group I (vehicle control): 100 μl of 10% PEG300 (w/v) in saline;
Group II: mice treated with SU093 (20 mg/kg); and
Group III: mice treated with SU056 (20 mg/kg).
Doses were administered intraperitoneally (IP) for 7 days/week for 42 days and the mice were sacrificed on day 43. Tumor sizes were measured twice weekly using digital caliper and tumor volume was calculated by the formula: 0.5236 L1 (L2)^2, where L1 is long diameter, and L2 is short diameter.

For another data set, the system named is SCC-90 tumor xenograft. Kind of data set: Head and neck SCC-90 tumor xenograft in nude mice. The format is in vivo. The note with it: SCC-90, nude mice. The procedure: An immunodeficient nude mice model was also used to study the in vivo potential of SU093 and SU056 for head and neck cancer. Nude mice (n=3/group) were subcutaneously injected in the right flank with 5×10^6 SCC-90 cells mixed with matrigel and observed regularly until the tumor size reached about 200 mm^3. The treatment regime with drugs including dose, formulation and route of delivery was similar to ovarian cancer study discussed above. Doses of SU093 and SU056 were administered daily until 35 days and mice were sacrificed thereafter. […] At the end of 35 days, calculated tumor volume/mouse was 860.33±21.78 mm^3, 694.67±14.64 mm^3, and 435.00±10.81 mm^3 for control, SU093 and SU056 treatment groups, respectively. This equates to a 20% and 50% reduction in tumor volume for SU093 and SU056 treatment groups, respectively. A decrease in tumor weight of about 21% (P value not significant) and 54% (P<0.002) was also observed for the SU093 and SU56 treatment groups, respectively.

[1] abbreviates: ID-8, 20 mg/kg IP daily, 42 days, vs control.

Take `COc1ccc2c(c1)N(CCO)C1=C(C(=O)OC1)C2c1ccccc1` (centres unmarked) [SU093]: in the data set with GBP1, the “GBP1 nuclear translocation and β-tubulin expression” value was “inhibits the nuclear translocation of GBP1 protein and reduces the tubulin expression; also recorded: blocking its nuclear translocation and reducing β-tubulin expression”. Also, the inhibition (commonly the drop in the measured response relative to a control, in per cent) at 0.015 µM in the data set with OVCAR8-PRes cells (15 nM SU093, read-out: inhibition in the cell growth) worked out at 50%; with OVCAR8-PRes cells (SU093 (15 nM) and paclitaxel (2 μM), read-out: growth inhibition, combination treatment), 80%. Moreover, the half-maximal inhibitory concentration (IC50) – broadly, the concentration needed to halve the response being measured – in the data set on HCT116 was determined as 1.24 nM; in the data set with A549, 2.48 nM. Moreover, the “radiation sensitizing effect, clonogenic assay” value in the data set with SCC-90 cells is “radiosensitization effect; also recorded: significant radiation sensitizing effect”. In the data set with ID-8 tumor xenograft (20 mg/kg IP daily, 42 days), the “gross sign of toxicity (body weight and diet consumption)” value is listed as “did not show any gross sign of toxicity”. Also, the “liver toxicity parameters (AST, ALT, Alkaline phosphatase)” value in the data set with ID-8 tumor xenograft (ELISA, end of 42 days, vs control) is reported as “No significant difference”. Besides, the “reduction in tumor volume” value in the data set with ID-8 tumor xenograft (setting [1]) is listed as 37.5%; with SCC-90 tumor xenograft (35 days, vs control), 20%. Moreover, the tumor weight decreased in the data set with ID-8 tumor xenograft (setting [1]) is on record as 39.65%. For the same compound, the tumor volume/mouse in the data set with ID-8 tumor xenograft (ID-8, 20 mg/kg IP daily, end of 6 weeks) was 318.81±26.09 mm^3; with SCC-90 tumor xenograft (20 mg/kg IP daily, end of 35 days), 694.67±14.64 mm^3. In addition, the “decrease in tumor weight” value in the data set on SCC-90 tumor xenograft (35 days, vs control) is reported as “about 21%”.

Values taken from patent US11771692B2, “N-hydroxyethyl didehydroazapodophyllotoxins as GBP1 inhibitors and methods of overcoming treatment resistance in cancer” (The Board of Trustees of the Leland Stanford Junior …, priority 2018, dated 2023).
